Assay type in all cases: cell-based, mouse
The test system of one experiment is spleen dendritic cells. Description: Fluorescence staining of CD86 in spleen dendritic cells, confocal microscope. The following applies: 24 hours. The protocol: In FIG. 11, culturing spleen dendritic cells (2×10^5/mL) and the prepared peptides were added at a concentration of 200 μg/mL, respectively, and after 6 hours, the expression level of CD86 using a PE-conjugated anti-CD86 antibody (eBioscience) was measured through a confocal microscope after fluorescence staining. After culturing spleen primary dendritic cells for a certain period of time, intracellular CD86, F-actin and nuclear staining was implemented. Expression of actin was stained with FITC-conjugated phalloidin (eBioscience), and nuclear staining was conducted with Hoechst 33342 (Sigma-Aldrich). For this purpose, cells cultured in a 48-well plate were placed in a 4% paraformaldehyde fixing solution, and then fixed at room temperature for 20 minutes.
Then, after washing twice with phosphate buffered saline solution, it was permeabilized with 0.1% Triton X-100 (Sigma-Aldrich) solution at room temperature for 5 minutes and washed twice with phosphate buffered saline solution. In order to remove non-specific staining, after reacting with 0.2% bovine serum albumin (Sigma-Aldrich) solution at room temperature for 20 minutes, it was washed twice with phosphate buffered saline solution. After that, the anti-CD86 antibody and phalloidine were diluted in 0.2% bovine serum albumin solution at a ratio of 1:40 and reacted for 40 minutes, washed 3 times with Tris buffer, placed on a slide glass, followed by counter-staining with Hoechst 33342 solution for nuclear staining of cells. After sealing with a cover glass, the cells were observed using a confocal laser microscope (K1 nanoscope).
In FIG. 26, spleen dendritic cells (2×10^5/mL) were dispensed in a 48-well plate, and linker peptides were each added at a concentration of 400 μg/mL, followed by culturing for 24 hours. Activation of spleen dendritic cells was induced by adding 1 μg/mL of LPS to the culture medium. The cultured cells were placed in a 4% paraformaldehyde fixing solution and fixed at room temperature for 20 minutes. After fluorescence staining using PE-conjugated anti-CD86 antibody (eBioscience), it was measured with a confocal microscope (K1 Nanoscope, Korea). Intracellular actin expression was stained with FITC-conjugated phalloidin (eBioscience), and nuclear staining was conducted with Hoechst 33342 (Sigma-Aldrich). CD86 antibody and phalloidin were diluted 1:40 in 0.2% bovine serum albumin solution and used.

Experiment [1] relates to bone marrow-derived dendritic cells. Description: ELISA of TNF-α and IL-12p40 from LPS-stimulated bone marrow-derived dendritic cells. The note with it: BMDC, 24 hours, LPS 1 μg/mL. The protocol: Mouse bone marrow-derived dendritic cells were obtained by differentiation from mouse bone marrow precursor cells. The femur and tibia of female C57BL/6 mouse were removed, and bone marrow was isolated using 10 mL of EDTA:BSS (Balanced Salt Solution) buffer containing 2% FBS. Red blood cells were removed with erythrocyte lysis buffer (Sigma-Aldrich), washed with EDTA:BSS buffer, followed by filtering cells using a 70 μm cell strainer (Falcon). Cells at 3×10^6/mL were dispensed in a 6-well plate, and interleukin-4 (20 ng/ml) (JW Creagene, Korea) and GM-CSF (20 ng/ml) (JW Creagene) were added and cultured for 7 days to induce differentiation. Differentiated dendritic cells were reacted with microbeads bound with CD11c antibody (eBioscience), was separated using CD11c Microbeads Ultrapure (MACS, Milteni Biotec), and then cultured.
In FIG. 19, when fibronectin was administered by concentration while culturing bone marrow-derived dendritic cells for 24 hours, it could be seen that the secretion of TNF-α and IL-12p40 by LPS (1 μg/mL) was inhibited from a concentration of 100 μg/mL. * indicates statistical significance as P<0.05 or less compared to 0 μg/mL concentration.
(An ELISA detects its analyte on a solid surface through an enzyme-linked reagent.)

Experiment [2] deals with spleen primary dendritic cells. Description: ELISA of TNF-α / IL-12p40 secreted by cultured spleen primary dendritic cells. The note with it: 24 hours. The protocol: In FIG. 12, spleen primary dendritic cells were dispensed at 1×10^6/mL and cultured for 24 hours, and then a concentration of TNF-α secreted from these cells in the culture medium was measured. As a result, it was confirmed that the secretion increased in a time-dependent manner. The concentration of TNF-α was measured at 450 nm using an ELISA kit (R&D systems) and a microplate analyzer (Synergy H1, Biotek). However, when dendritic cells were dispensed at 2×10^5/mL, CD86 expression was increased but TNF-α secretion was not increased (results not presented). * indicates statistical significance as P<0.05 or less compared with 3 h.
In FIG. 13, spleen primary dendritic cells were dispensed at 1×10^6/mL and cultured for 24 hours. […] Furthermore, when P4, P5 and P6 peptides were added at a concentration of 200 μg/mL, respectively, the secretion of TNF-α was not inhibited.
Therefore, it could be seen that fibronectin has a disadvantage of inhibiting the activation by stimulants although can maintain the inactivation of spleen dendritic cells. * indicates statistical significance as P<0.05 or less compared to -LPS.
In FIG. 27, an ELISA kit (R&D systems) was used to measure the concentration of TNF-α secreted into the culture medium when spleen primary dendritic cells were dispensed at 2×10^5/mL and cultured for 24 hours. The concentration was determined at 450 nm by a microplate analyzer (Synergy H1, Biotek).

fibronectin: the CD86-expressing cells entry is “almost not measured” in the experiment with spleen dendritic cells (with 1 μg/mL LPS) and “almost not observed” with spleen dendritic cells (without LPS, linker peptides 400 μg/mL). Further, in experiment [1], the “concentration from which the secretion of TNF-α and IL-12p40 by LPS was inhibited” value was ≥ 100 µg/mL. For the same substance, the “secretion of TNF-α and IL-12p40” value in experiment [2] (1 μg/mL LPS) is listed as “did not produce these cytokines”. Besides, the “secretion of TNF-α” value in experiment [2] (cells 1×10^6/mL, no stimulant) is on record as “hardly measured”. Besides, the TNF-α secretion result in experiment [2] (cells 2×10^5/mL, without LPS) is “hardly occurred”.

The values are drawn from US20240207308A1, “METHOD FOR CULTURING DENDRITIC CELLS” (NANOFAENTECH CO., LTD., priority 2021, published 2024).
